Laboratory results reported in US5110976A, “Insecticidal composition comprising more than one active ingredient” (priority 1985, dated 1992).
≈ marks a conversion by molar mass, not a printed value.

Assays:
Lucillia sericata = experiment: Comparative contact test (Table 15); format: in vivo, sheep maggot fly (Lucillia sericata), imago; parameters: key: % mortality after 24 h, Abbott-corrected; settings: 1440 min
Method: (§1) The active ingredient is dissolved in a 1:2 mixture of oil and acetone; filter paper discs (Whatman No. 1, diameter 9 cm) are impregnated with the solutions of the corresponding stereoisomers and enantiomer-pairs, respectively. The acetone is allowed to evaporate, whereupon the insects are exposed to filter papers discs placed in Petri-dishes. Three parallels are used on each dose and 15 insects are placed into each Petri-dish. The percental mortality is determined after 24 hours. The corrected percent mortality is calculated by means of the Abbot Formula.
(§2) The comparative test of Ia, Ib and a 40:60 mixture of Ia:Ib is carried out on bean weevil (Acanthoscelides obtectus), flour-beetle, (Tribolium confusum), house fly (Musca domestica) and sheep maggot fly (Lucillia sericata). The test method described is Example 41.

Tribolium confusum [1] = experiment: Contact test, mixtures of Ia and Ib of various ratio (Table 13); format: in vivo, flour beetle (Tribolium confusum)
Method: as §1
In Table 13 the insecticidal effect of mixtures of enantiomer-pairs Ia and Ib of various ratio is shown on flour beetle (Tribolium confusum). The test method is that disclosed in Example 43.

tribolium confusum [2] = experiment: Comparative contact test (Table 15); format: in vivo, flour-beetle (Tribolium confusum), imago; settings: 24 h
Method: as §1, §2

Tetranychus urticae = experiment: Potter Tower spray on mite-infested leaves (Table 19); format: in vivo, mites (Tetranychus urticae); settings: Tetranychus urticae, 24 h, mortality after 24 hours; read-out: approx. LD50
Method: Leaves already infested with mites (Tetranychus urticae) were sprayed under Potter Tower. Mortality after 24 hours on the treated leaves was compared with the control.

Colorado potato beetle = experiment: Topical test on Colorado potato beetle (Table 14); format: in vivo, Colorado potato beetle (Leptinotersa decemlineata), imago
Method: In Table 14 the activity on Colorado potato beetle is shown.
The test materials are dissolved in 2-ethoxyethanol (Cellosolve). One 0.3 μl drop of the solution is applied to the abdominal sterna of the imago. The treatment is carried out by using 2 parallels and 10 insects for each dose. […]

Musca domestica [3] = experiment: Filter paper disc contact test (Table 11); format: in vivo, house fly (Musca domestica)
Method: In Table 1 the activity of various stereoisomers of cypermethrin on the house fly (Musca domestica) is shown.
as §1

Hyphantria cunea = experiment: Topical test on fall webworm (Table 18); format: in vivo, fall wetworm (Hyphantria cunea), L7-L8 larvae; settings: for 24 hours' mortality: 1440 min
Method: The active ingredients are dissolved in 2-ethoxy-ethanol and the solutions are applied in the form of 0.2 μl droplets onto the back of fall wetworm (Hyphantria cunea) of L7 -L8 larvae stage. The treated worms are placed on strawberry leaves in Petri-dishes. The test is carried out by using […], 2 parallels and 10 insects for each dose. The killed worms are counted after 24 hours and the percental mortality rate is calculated.

Tribolium confusum [4] = experiment: Contact test on Tribolium confusum (Table 12); format: in vivo; settings: Tribolium confusum, 24 h
Method: as §1
It appears from Table 12 that the increased activity shown in Example 41 is due to the synergistic effect of the trans-isomers to Tribolium confusum.

Musca domestica [5] = experiment: Comparative contact test (Table 15); format: in vivo, house fly (Musca domestica), imago; settings: 24 h
Method: as §1, §2

Acanthoscelides obtectus = experiment: Comparative contact test (Table 15); format: in vivo, bean weevil (Acanthoscelides obtectus), imago; settings: Acanthoscelides obtectus, 24 h
Method: as §1, §2

T. confusum = experiment: Activity as function of time, toxic symptoms (Table 16); format: in vivo, flour beetle (T. confusum), imagos
Method: as §1
Activity of cypermethrin stereoisomer-pairs as function of time on flour beetle (T. Confusum).
Flour beetle (T. confusum) imagos are exposed in Petri-dishes according to the method described in Example 43. For each dose 3 parallels are used and 15 animals are applied for each parallel test. In each point of time the insects lying on their backs are counted and the percental results are expressed in Table 16.

## CC1(C)C(C=C(Cl)Cl)C1C(=O)OC(C#N)c1cccc(Oc2ccccc2)c1 (stereo not shown) [Ia:Ib = 4:6]
Lucillia sericata; 0.02 mg/disc
  mortality: 18
Lucillia sericata; 0.07 mg/disc
  mortality: 50
Lucillia sericata; 0.22 mg/disc
  mortality: 60
Lucillia sericata; 0.67 mg/disc
  mortality: 75
Lucillia sericata; 2.0 mg/disc
  mortality: 100
Lucillia sericata; 6.0 mg/disc
  mortality: 100
Tribolium confusum [1]; 0.02 mg/disc, 1440 min
  24 hours' mortality %: 14%
Tribolium confusum [1]; 0.06 mg/disc, 1440 min
  24 hours' mortality %: 53%
Tribolium confusum [1]; 0.25 mg/disc
  24 hours' mortality %: 100%
Tribolium confusum [1]; 1.00 mg/disc
  24 hours' mortality %: 100%
Tribolium confusum [2]; 0.02 mg/disc
  mortality at 20 µg/disc: 16%
Tribolium confusum [2]; 0.07 mg/disc
  mortality at 70 µg/disc: 80%
Tribolium confusum [2]; 0.22 mg/disc
  mortality at 220 µg/disc: 100%
Tribolium confusum [2]; 0.67 mg/disc
  mortality at 670 µg/disc: 100%
Tribolium confusum [2]; 2.0 mg/disc
  mortality at 2000 µg/disc: 100%
Tribolium confusum [2]; 6.0 mg/disc
  mortality at 6000 µg/disc: 100%
Tetranychus urticae
  LC50: ~0.06 µg/mL (≈ 0.144 µM)
Colorado potato beetle; 0.05 μg/beetle
  24 hours' mortality %: 45%
Colorado potato beetle; 0.10 μg/beetle
  24 hours' mortality %: 60%
Colorado potato beetle; 0.20 μg/beetle
  24 hours' mortality %: 70%
Colorado potato beetle; Leptinotarsa decemlineata, topical, read-out: 24 hours' mortality %, 0.40 μg/beetle
  mortality at 0.4 µg/beetle: 80%
Musca domestica [3]; Musca domestica, 24 h, 0.04 mg/disc
  mortality at 40 µg/disc: 41%
Musca domestica [3]; Musca domestica, 24 h, 0.11 mg/disc
  mortality at 110 µg/disc: 81%
Musca domestica [3]; Musca domestica, 24 h, 0.33 mg/disc
  mortality at 330 µg/disc: 100%
Musca domestica [3]; Musca domestica, 24 h, 1.00 mg/disc
  mortality at 1000 µg/disc: 100%
Musca domestica [3]; Musca domestica, 24 h, 3.00 mg/disc
  mortality at 3000 µg/disc: 100%
Musca domestica [3]; mixture versus Ia
  comparative activity: corresponds to that of the pure isomer Ia
Hyphantria cunea; 0.023 (μg/disc)
  24 hours' mortality: 40%
Hyphantria cunea; 0.047 (μg/disc)
  24 hours' mortality: 50%
Hyphantria cunea; 0.094 (μg/disc)
  24 hours' mortality: 55%
Hyphantria cunea; Hyphantria cunea, topical, 24 h, 0.188 (μg/disc)
  mortality at 0.188 µg/disc: 65%
Hyphantria cunea; Hyphantria cunea, topical, 24 h, 0.375 (μg/disc)
  mortality at 0.375 µg/disc: 75%
Tribolium confusum [4]; 0.11 mg/disc
  mortality at 110 µg/disc: 61%
Tribolium confusum [4]; 0.33 mg/disc
  mortality at 330 µg/disc: 89%
Tribolium confusum [4]; 1.00 mg/disc
  mortality at 1000 µg/disc: 100%
Tribolium confusum [4]; 3.00 mg/disc
  mortality at 3000 µg/disc: 100%
Musca domestica [5]; 0.02 mg/disc
  mortality at 20 µg/disc: 25%
Musca domestica [5]; 0.07 mg/disc
  mortality at 70 µg/disc: 45%
Musca domestica [5]; 0.22 mg/disc
  mortality at 220 µg/disc: 85%
Musca domestica [5]; 0.67 mg/disc
  mortality at 670 µg/disc: 100%
Musca domestica [5]; 2.0 mg/disc
  mortality at 2000 µg/disc: 100%
Musca domestica [5]; 6.0 mg/disc
  mortality at 6000 µg/disc: 100%
Acanthoscelides obtectus; 0.02 mg/disc
  mortality at 20 µg/disc: 30%
Acanthoscelides obtectus; 0.07 mg/disc
  mortality at 70 µg/disc: 55%
Acanthoscelides obtectus; 0.22 mg/disc
  mortality at 220 µg/disc: 90%
Acanthoscelides obtectus; 0.67 mg/disc
  mortality at 670 µg/disc: 100%
Acanthoscelides obtectus; 2.0 mg/disc
  mortality at 2000 µg/disc: 100%
Acanthoscelides obtectus; 6.0 mg/disc
  mortality at 6000 µg/disc: 100%
T. confusum; 30 minutes
  % of insects showing toxic symptoms: 0%
T. confusum; 30 minutes, 0.33 mg/disc
  % of insects showing toxic symptoms: 0%
T. confusum; 30 minutes, 1.00 mg/disc
  % of insects showing toxic symptoms: 50%
T. confusum; 30 minutes, 3.00 mg/disc
  % of insects showing toxic symptoms: 55%
T. confusum; 60 minutes
  % of insects showing toxic symptoms: 15%
T. confusum; 60 minutes, 0.33 mg/disc
  % of insects showing toxic symptoms: 85%
T. confusum; 60 minutes, 1.00 mg/disc
  % of insects showing toxic symptoms: 85%
T. confusum; 60 minutes, 3.00 mg/disc
  % of insects showing toxic symptoms: 100%
T. confusum; 120 minutes
  % of insects showing toxic symptoms: 30%
T. confusum; 120 minutes, 0.33 mg/disc
  % of insects showing toxic symptoms: 100%
T. confusum; 120 minutes, 1.00 mg/disc
  % of insects showing toxic symptoms: 100%
T. confusum; 120 minutes, 3.00 mg/disc
  % of insects showing toxic symptoms: 100%
T. confusum; 180 minutes
  % of insects showing toxic symptoms: 55%
T. confusum; 180 minutes, 0.33 mg/disc
  % of insects showing toxic symptoms: 100%
T. confusum; 180 minutes, 1.00 mg/disc
  % of insects showing toxic symptoms: 100%
T. confusum; 180 minutes, 3.00 mg/disc
  % of insects showing toxic symptoms: 100%
